# Experimental data from US20070270428A1, “Use of Cyclooxygenase-2 Inhibitors for the Treatment of Depressive Disorders” (priority 2003, published 2007).
# Read-outs that look alike come from different tables or passages of the source.
# What was measured:
# human COX-2 = target: T1, human COX-2 (Homo sapiens, UniProt P35354); test: Inhibition of human COX-2 in stably transfected COS cells (PGE2 release); format: cell-based; settings: COS cells stably transfected with human COX-2
# T1 construct: expressed in transfected cells; host or cells: COS cells (stably transfected)
# T1 sequence (P35354 18-604): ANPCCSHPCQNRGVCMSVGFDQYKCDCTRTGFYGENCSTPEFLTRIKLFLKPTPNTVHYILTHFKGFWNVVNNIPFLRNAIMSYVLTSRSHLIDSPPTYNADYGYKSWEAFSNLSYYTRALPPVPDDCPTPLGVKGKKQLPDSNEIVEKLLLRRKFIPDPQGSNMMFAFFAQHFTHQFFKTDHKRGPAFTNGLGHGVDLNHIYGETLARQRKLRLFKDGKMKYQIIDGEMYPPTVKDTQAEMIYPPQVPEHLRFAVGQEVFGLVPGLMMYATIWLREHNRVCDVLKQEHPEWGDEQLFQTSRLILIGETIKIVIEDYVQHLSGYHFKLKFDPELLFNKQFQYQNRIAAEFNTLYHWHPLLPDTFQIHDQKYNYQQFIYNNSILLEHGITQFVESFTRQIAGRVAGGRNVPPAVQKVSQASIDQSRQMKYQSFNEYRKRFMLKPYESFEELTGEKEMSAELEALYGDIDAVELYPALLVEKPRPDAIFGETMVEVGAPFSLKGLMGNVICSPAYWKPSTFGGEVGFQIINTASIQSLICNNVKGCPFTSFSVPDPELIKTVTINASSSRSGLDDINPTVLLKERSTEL
# Protocol: (§1) 24 Hours prior to experiment, COS cells were transferred from the 175 cm^2 flasks in which they were grown, onto 24-well cell culture plates using the following procedure. The incubation medium
# (Dulbecco's modified eagles medium (DMEM) supplemented with heat-inactivated foetal calf serum (10% v/v), penicillin (100 lU/ml), streptomycin (100 μg/ml) and geneticin (600 μg/ml)) was removed from a flask of confluent cells (1 flask at confluency contains approximately 1×10^7 cells). 10 ml of phosphate buffered saline (PBS) was added to the flask to wash the cells. Having discarded the PBS, cells were then rinsed in 10 ml trypsin for 20 seconds, after which the trypsin was removed and the flask placed in an incubator (37°) for 1-2 minutes until cells became detached from the flask. The flask was then removed from the incubator and cells resuspended in 10 ml of fresh incubation medium. The contents of the flask was transferred to a 250 ml sterile container and the volume of incubation medium subsequently made up to 100 ml. […] If more than 1 flask of cells were required, the cells from the individual flasks were combined before being dispensed into the 24-well plates.
# Following the overnight incubation, the incubation medium was completely removed from the 24-well cell culture plates and replaced with 250 μl fresh DMEM (37° C.). […]
# human COX-1 = target: T2, human COX-1 (Homo sapiens, UniProt P23219); test: Inhibition of human COX-1 in stably transfected COS cells (PGE2 release); format: cell-based; settings: COS cells stably transfected with human COX-1
# T2 construct: expressed in transfected cells; host or cells: COS cells (stably transfected)
# Protocol: as §1
# (Dulbecco's modified eagles medium (DMEM) supplemented with heat-inactivated foetal calf serum (10% v/v), penicillin (100 lU/ml), streptomycin (100 μg/ml) and geneticin (600 μg/ml)) was removed from a flask of confluent cells (1 flask at confluency contains approximately 1×10^7 cells). 10 ml of phosphate buffered saline (PBS) was added to the flask to wash the cells. Having discarded the PBS, cells were then rinsed in 10 ml trypsin for 20 seconds, after which the trypsin was removed and the flask placed in an incubator (37°) for 1-2 minutes until cells became detached from the flask. The flask was then removed from the incubator and cells resuspended in 10 ml of fresh incubation medium. The contents of the flask was transferred to a 250 ml sterile container and the volume of incubation medium subsequently made up to 100 ml. […] The plates were then placed in an incubator (37° C., 95% air/5% CO2) overnight. If more than 1 flask of cells were required, the cells from the individual flasks were combined before being dispensed into the 24-well plates.
# Following the overnight incubation, the incubation medium was completely removed from the 24-well cell culture plates and replaced with 250 μl fresh DMEM (37° C.). The test compounds were made up to 250× the required test concentration in DMSO and were added to the wells in a volume of 1 μl. Plates were then mixed gently by swirling and then placed in an incubator for 1 hour (37° C., 95% air/5% CO2). Following the incubation period, 10 μl of arachidonic acid (750 μM) was added to each well to give a final arachidonic acid concentration of 30 μM. Plates were then incubated for a further 15 minutes, after which the incubation medium was removed from each well of the plates and stored at −20° C., prior to determination of prostaglandin E2 (PGE2) levels using enzyme immunoassay. The inhibitory potency of the test compound was expressed as an IC50 value, which is defined as the concentration of the compound required to inhibit the PGE2 release from the cells by 50%. The selectivity ratio of inhibition of COX-1 versus COX-2 was calculated by comparing respective IC50 values.
# microsomal h-COX2 = target: T3, microsomal h-COX2 (Homo sapiens, UniProt P35354); test: Microsomal assay, COX-2 (microsomal preparation from baculovirus infected SF9 cells); format: biochemical
# T3 construct: made in house; host or cells: baculovirus infected SF9 cells (microsomal preparation)
# T3 sequence (P35354 18-604): T1 sequence (P35354 18-604)
# Protocol: Inhibitory activity against microsomal h-COX2 was assessed against a microsomal preparation from baculovirus infected SF9 cells. An aliquot of microsomal preparation was thawed slowly on ice and a 1/40,000 dilution prepared from it into the assay buffer (sterile water, degassed with argon containing 100 mM HEPES (pH 7.4), 10 mM EDTA (pH7.4), 1 mM phenol, 1 mM reduced glutathione, 20 mg/ml gelatin and 0.001 mM Hematin). Once diluted the enzyme solution was then sonicated for 5 seconds (Branson sonicator, setting 4, 1 cm tip) to ensure a homogeneous suspension. […] Plates were then mixed and incubated at room temperature for 1 hour. Following the incubation period, 40 μl of 0.5 μM arachidonic acid was added to each well to give a final concentration of 0.1 μM. Plates were then mixed and incubated for exactly 10 minutes (room temperature) prior to addition of 25 μl 1M HCl (hydrochloric acid) to each well to stop the reaction. 25 μl of 1M NaOH (sodium hydroxide) was then added to each well to neutralise the solution prior to determination of PGE2 levels by enzyme immunoassay (EIA).
# male Sprague-Dawley rats = test: Chronic Inescapable Shock in Rats (escape test); format: in vivo, rat; settings: stressed rats
# Protocol: The Chronic Inescapable Shock in Rats model, developed from the learned Helplessness paradigm, was used to investigate the acquisition of shock-induced escape deficits in rats in the absence and presence of SSRI±COX-2 inhibitors. The test was performed over a period of seven days as an adaptation of the methodology used previously by Gambarana, C., […]. & De Montis, M. G. (1995). Experiments were carried out on male Sprague-Dawley rats (Charles River, Como, Italy). Animals were kept in a controlled environment with a constant temperature of 22° C. and a 12 hour light/12 hour inverted dark cycle, with free access to food and water. The procedures used in this study for all animals were in strict accordance with the European legislation on the use and care of laboratory animals (CEE N° 86/609) and experiments were performed under red light. The experimental procedure consists of a pre-test session (exposure to an unavoidable stress of minimum intensity and duration required to induce a reliable behavioural modification) followed 24 hours later by an escape test (for the assessment of the induced behavioural modification). […]
# [1] = microsomal assay, PGE2 by EIA, read-out: COX-2: IC50
# T2 sequence (P23219 24-599): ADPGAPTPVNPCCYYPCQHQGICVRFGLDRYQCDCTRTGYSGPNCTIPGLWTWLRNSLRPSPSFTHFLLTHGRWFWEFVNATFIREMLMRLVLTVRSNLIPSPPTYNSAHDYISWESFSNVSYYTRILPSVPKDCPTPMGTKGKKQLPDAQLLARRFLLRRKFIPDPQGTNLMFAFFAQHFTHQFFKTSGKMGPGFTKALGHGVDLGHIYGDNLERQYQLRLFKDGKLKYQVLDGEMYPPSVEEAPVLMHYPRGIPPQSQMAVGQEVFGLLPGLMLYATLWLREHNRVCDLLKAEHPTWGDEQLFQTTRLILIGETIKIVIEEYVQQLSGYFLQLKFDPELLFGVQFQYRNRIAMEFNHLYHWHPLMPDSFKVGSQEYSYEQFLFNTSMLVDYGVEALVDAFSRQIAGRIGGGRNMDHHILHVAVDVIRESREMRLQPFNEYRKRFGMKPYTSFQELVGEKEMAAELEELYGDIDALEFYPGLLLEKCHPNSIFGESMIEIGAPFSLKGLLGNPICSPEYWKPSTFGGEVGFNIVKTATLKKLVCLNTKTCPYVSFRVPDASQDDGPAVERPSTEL
smiles,measurement,setting,value
"COc1ccc(-c2nn3ncccc3c2-c2ccc(S(C)(=O)=O)cc2)cc1 [2.2(ii), 3-(4-Methanesulfonyl-phenyl)-2-(4-methoxy-phenyl)-pyrazolo[1,5-b]pyridazine]",IC50,human COX-2,< 0.01 µM
"CS(=O)(=O)c1ccc(-c2c(-c3ccc(F)cc3)nn3nc(OC(F)F)ccc23)cc1 [2.1(v), 6-Difluoromethoxy-2-(4-fluoro-phenyl)-3-(4-methanesulfonyl-phenyl)-pyrazolo[1,5-b]pyridazine]",IC50,human COX-1,> 100 µM
CS(=O)(=O)c1ccc(-c2cc(C(F)(F)F)nc(Oc3cncc(Cl)c3)n2)cc1 [Example 1.7],IC50,microsomal h-COX2; [1],< 0.01 µM
"CCOc1ccc(-c2nn3ncccc3c2-c2ccc(S(C)(=O)=O)cc2)cc1 [2.3(ii), 2-(4-Ethoxy-phenyl)-3-(4-methanesulfonyl-phenyl)-pyrazolol[5-b]pyridazine]",IC50,human COX-1,> 100 µM
"CS(=O)(=O)c1ccc(-c2c(-c3cccc(F)c3)nn3nc(OC(F)F)ccc23)cc1 [2.7(viii), 6-Difluoromethoxy-2-(3-fluoro-phenyl)-3-(4-methanesulfonyl-phenyl)-pyrazolo[1,5-b]pyridazine]",IC50,human COX-1,> 55.2 µM
"CS(=O)(=O)c1ccc(-c2cc(C(F)(F)F)cc(OCc3ccccn3)n2)cc1 [Example 3.2, 2-[4-(methylsulfonyl)phenyl]-6-[(2-pyridinylmethyl)oxy]-4-(trifluoromethyl)pyridine]",IC50,"microsomal h-COX2; stated in text after the microsomal assay table, read-out: IC50 values for inhibition of COX-2",≤ 0.5 µM
Cc1ccc(Oc2nc(-c3ccc(S(C)(=O)=O)cc3)cc(C(F)(F)F)n2)cc1 [Example 1.6],IC50,microsomal h-COX2; [1],< 0.01 µM
"CS(=O)(=O)c1ccc(-c2c(-c3ccc(OC(F)F)cc3)nn3ncccc23)cc1 [Compound 2.5, 2-(4-Difluoromethoxy-phenyl)-3-(4-methanesulfonyl-phenyl)-pyrazolo[1,5-b]pyridazine]",IC50,human COX-1,> 100 µM
"Fc1ccc([C@@H]2CCNC[C@H]2COc2ccc3c(c2)OCO3)cc1 (relative stereo) [PAROXETINE, trans-(−)-3-[(1,3-benzodioxol-5-yloxy)methyl]-4-(4-fluorophenyl)piperidine]",MEAN Number of escapes,"male Sprague-Dawley rats; 7 days of treatment p.o., escapes out of 30 consecutive trials on day 8",3.8
same,reversal of chronic escape deficit,"male Sprague-Dawley rats; after 7 days of treatment, day 8",lack of reversal of chronic inescapable shock
